Experimental data: PMC12190436, “5-Ene-2-arylaminothiazol-4(5H)-ones Induce Apoptosis in Breast Cancer Cells” (Cells, 2025)
Structures can show the parent of a compound that is named as a salt.

What was measured:
MDA-MB-231 = test: MTT cell viability assay; assay type: cell-based; settings: Homo sapiens
Description: (§1) All of the tested cell lines were acquired from the American Type Culture Collection (ATCC, Manassas, VA, USA), including human breast cancer cell lines (MCF-7, MDA-MB-231), human gastric cancer cell line (AGS), human colorectal cancer cell lines (HT-29, DLD-1), human glioblastoma cancer cell lines (T98G, A172), mouse astrocyte type I clone (C8-D1A), human normal epithelial breast cells (MCF-10A) and primary dermal fibroblast (HDFa). Such cell lines as AGS, MCF-7, MDA-MB-231, A172, T98G, C8-D1A, and primary dermal fibroblast (HDFa) were cultured in complete medium–DMEM (Corning, Kennebunk, ME, USA). RPMI-1640 (ATCC, Manassas, VA, USA) was used for the DLD-1 cell line, and McCoy’s 5A (PAN-Biotech, Aidenbach, Germany) for the HT-29 cell line. To all utilized media additionally was added 10% fetal bovine serum (FBS) (Eurx, Gdansk, Poland) and 1% penicillin and streptomycin solution (Corning, Kennebunk, ME, USA). MCF-10A cells were incubated in MEGM (Mammary Epithelial Cell Growth Medium) BulletKit supplemented with penicillin/streptomycin cocktail and 5% horse serum. All cells were cultured at 37 °C in an atmosphere with 5% CO₂ in tissue culture dishes (Sarstedt, Numbrecht, Germany). For experiments, cells were washed with phosphate-buffered saline (PBS) (Corning, Kennebunk, ME, USA) followed by the addition of 0.05% trypsin with 0.02% EDTA (Corning, Kennebunk, ME, USA). Scepter 3.0 cell counter (Merck Millipore, Burlington, MA, USA) was applied before each seeding to calculate the number of cells. For the next analyses, cells were reseeded in 6-well plates, 24-well plates, and 96-well plates.
(§2) MTT (3-(4,5-dimethylthiazol-2-yl)-2,5-diphenyltetrazolium bromide) assay method was utilized to analyze compound effects on cell viability. All cell lines were seeded in 96-well plates with 1 × 10^4 cells per well. After 24 h, cells were treated with the tested compounds and reference drug at concentrations of 0.1, 1, 2.5, 5, 10, and 20 µM for 24, 48, or 72 h. Next, a solution of 3-(4,5-dimethyl-2-thiazolyl)-2,5-diphenyl-2H-tetrazolium bromide (Sigma-Aldrich, St. Louis, MO, USA) in PBS with a concentration of 5 mg/mL was prepared. After the incubation with tested compounds, 10 µL of the prepared MTT solution was applied to each well, followed by 2 h of incubation at 37 °C. Next, cells underwent lysis by adding 100 µL of pre-prepared lysing buffer (containing 25 mM HCl, 2% acetic acid, 3% DMF, and 5% SDS, with a pH of 4.7). The absorbance was measured using a UV-VIS Helios Gamma (Unicam/ThermoFisher Scientific Inc., Cleveland, OH, USA) at 570 nm wavelength. The cells incubated with vehicle substance (0.1% DMSO) were taken as controls.
(§3) To investigate the cytotoxic potential of the newly synthesized compounds, a comprehensive assessment was conducted utilizing the MTT assay. This assay was applied on a diverse panel of cell lines, such as human breast cancer cell lines (MCF-7 and MDA-MB-231), human gastric cancer cell line (AGS), human colorectal cancer cell lines (HT-29 and DLD-1), human glioblastoma cancer cell lines (T98G and A172), mouse astrocyte type I clone cells (C8-D1A), primary dermal fibroblast (HDFa), and human normal breast cells (MCF-10A) for 24, 48, and/or 72 h.

A172 = test: MTT cell viability assay; assay type: cell-based; settings: Homo sapiens
Description: as §1, §2, §3

DLD-1 = test: MTT cell viability assay; assay type: cell-based; settings: Homo sapiens
Description: as §1, §2, §3

MCF-7 = test: MTT cell viability assay; assay type: cell-based; settings: Homo sapiens
Description: as §1, §2, §3

T98G = test: MTT cell viability assay; assay type: cell-based; settings: Homo sapiens
Description: as §1, §2, §3

HT-29 = test: MTT cell viability assay; assay type: cell-based; settings: Homo sapiens
Description: as §1, §2, §3

AGS = test: MTT cell viability assay; assay type: cell-based; settings: Homo sapiens
Description: as §1, §2, §3

MCF-10A = test: MTT cell viability assay; assay type: cell-based; settings: Homo sapiens, normal cells
Description: as §1, §2, §3

C8-D1A = test: MTT cell viability assay; assay type: cell-based; settings: Mus musculus, normal cells
Description: as §1, §2, §3

[1] = test system: Primary Dermal Fibroblast (HDFa); test: MTT cell viability assay; assay type: cell-based; settings: Homo sapiens, normal cells
Description: as §1, §2, §3

MCF-7 cells = test: Clonogenic assay; assay type: cell-based, human; settings: 24 h treatment, 10-day endpoint
Protocol: The clonogenic assay was performed in accordance with the published methodology. MCF-7 cells were seeded in 24-well plates at 2.5 × 10^2 cells per well in 1 mL medium. Afterwards, they were left in an incubator at 37 °C for 24 h to attach to the wells. […] After the treatment, the medium was changed to a fresh one and left for 10 days, with an additional change in medium for the fresh one on the 7th day. Next, colonies formed by the seeded cells were washed, fixed for 10 min at 4 °C with 90% methanol, and stained with crystal violet solution (0.1% of crystal violet dissolved in 25% methanol). Afterwards, the plates were washed and dried at room temperature. The wells were photographed and analyzed using ImageJ software version 1.54k (Bethesda, MD, USA), with colonies defined as clusters of fifty or more cells.
Colonies formation was assessed after a 10-day incubation period following the treatment.

Row | Structure (SMILES) | IC50 (MDA-MB-231; MDA-MB-231 24 h) | IC50 (MDA-MB-231; MDA-MB-231 48 h) | IC50 (MDA-MB-231; MDA-MB-231 72 h) | IC50 (DLD-1; DLD-1 24 h) | IC50 (DLD-1; DLD-1 48 h) | IC50 (MCF-7; MCF7, MCF-7 24 h) | IC50 (MCF-7; MCF7, MCF-7 48 h) | IC50 (MCF-7; MCF7, MCF-7 72 h) | IC50 (HT-29; HT-29 24 h) | IC50 (HT-29; HT-29 48 h) | IC50 (AGS; AGS 24 h) | IC50 (AGS; AGS 48 h) | IC50 (A172; A 172, A172 24 h) | IC50 (A172; A 172, A172 48 h) | IC50 (T98G; T98G 24 h) | IC50 (T98G; T98G 48 h) | IC50 (MCF-10A; MCF-10A 24 h) | IC50 ([1]; HDFa 24 h) | IC50 ([1]; HDFa 48 h) | IC50 ([1]; HDFa 72 h) | also measured
1 | COc1cc(NC2=NC(=O)C(=Cc3ccc4cc[nH]c4c3)S2)cc(OC)c1OC [Les-6416, 5-((1H-Indol-6-yl)methylene)-2-((3,4,5-trimethoxyphenyl)amino)thiazol-4(5H)-one] | > 20 µM | > 20 µM | > 20 µM | > 20 µM | > 20 µM | 4.7 ± 0.06 µM | 2.09 ± 0.05 µM | 1.29 ± 0.01 µM | > 20 µM | 6.58 ± 0.37 µM | > 20 µM | 3.45 ± 0.2 µM | > 20 µM | > 20 µM | > 20 µM | > 20 µM | > 20 µM | > 20 µM | > 20 µM | > 20 µM | IC50 (MCF-10A; MCF-10A 48 h): 7.99 ± 0.48 µM; IC50 (MCF-10A; MCF-10A 72 h): 7.25 ± 0.3 µM; IC50 (C8-D1A; C8-D1A 24 h): 14.3 ± 1.52 µM; IC50 (C8-D1A; C8-D1A 48 h): 7.1 ± 0.73 µM; survival fraction (MCF-7 cells; 2.5 µM): 5.89 ± 0.71%; survival fraction (MCF-7 cells; 5 µM): 1.35 ± 1.42%
2 | COc1cc(NC2=NC(=O)C(=Cc3c[nH]c4ccccc34)S2)cc(OC)c1OC [Les-6418, 5-((1H-Indol-3-yl)methylene)-2-((3,4,5-trimethoxyphenyl)amino)thiazol-4(5H)-one] | > 20 µM | > 20 µM | > 20 µM | > 20 µM | > 20 µM | > 20 µM | 4.51 ± 0.04 µM | 2.24 ± 0.07 µM | > 20 µM | 7.77 ± 0.91 µM | > 20 µM | 4.59 ± 0.42 µM | > 20 µM | > 20 µM | 16.9 ± 1.58 µM | > 20 µM | > 20 µM | > 20 µM | > 20 µM | > 20 µM | IC50 (MCF-10A; MCF-10A 48 h): 7.24 ± 0.29 µM; IC50 (MCF-10A; MCF-10A 72 h): 6.66 ± 0.67 µM; IC50 (C8-D1A; C8-D1A 24 h): 12.9 ± 0.24 µM; IC50 (C8-D1A; C8-D1A 48 h): 7.42 ± 2.33 µM; survival fraction (MCF-7 cells; 2.5 µM): 38.83 ± 1.66%; survival fraction (MCF-7 cells; 5 µM): 12.27 ± 9.27%

More lines, main results first:

Row | IC50 (MDA-MB-231; MDA-MB-231 24 h) | IC50 (MDA-MB-231; MDA-MB-231 48 h) | IC50 (MDA-MB-231; MDA-MB-231 72 h) | IC50 (DLD-1; DLD-1 24 h) | IC50 (DLD-1; DLD-1 48 h) | IC50 (MCF-7; MCF7, MCF-7 24 h) | IC50 (MCF-7; MCF7, MCF-7 48 h) | IC50 (MCF-7; MCF7, MCF-7 72 h) | IC50 (HT-29; HT-29 24 h) | IC50 (HT-29; HT-29 48 h) | IC50 (AGS; AGS 24 h) | IC50 (AGS; AGS 48 h) | Structure (SMILES) | IC50 (A172; A 172, A172 24 h) | IC50 (A172; A 172, A172 48 h) | IC50 (T98G; T98G 24 h) | IC50 (T98G; T98G 48 h) | IC50 (MCF-10A; MCF-10A 24 h) | IC50 ([1]; HDFa 24 h) | IC50 ([1]; HDFa 48 h) | IC50 ([1]; HDFa 72 h) | also measured
3 | > 20 µM | 3.91 ± 0.22 µM | 2.37 ± 0.15 µM | 4.69 ± 0.48 µM | 0.6 ± 0.08 µM | 2.46 ± 0.54 µM | 0.81 ± 0.01 µM | 0.26 ± 0.03 µM | > 20 µM | 0.3 ± 0.04 µM | > 20 µM | 0.39 ± 0.01 µM | COc1cccc2c1C(=O)c1c(O)c3c(c(O)c1C2=O)C[C@@](O)(C(=O)CO)C[C@@H]3O[C@H]1C[C@H](N)[C@H](O)[C@H](C)O1 [DOX, Doxorubicin hydrochloride, reference compound] | > 20 µM | 12.9 ± 0.89 µM | > 20 µM | > 20 µM | > 20 µM | > 20 µM | > 20 µM | 0.99 ± 0.03 µM | IC50 (MCF-10A; MCF-10A 48 h): 0.16 ± 0.01 µM; IC50 (MCF-10A; MCF-10A 72 h): 0.11 ± 0.01 µM; IC50 (C8-D1A; C8-D1A 24 h): > 20 µM; IC50 (C8-D1A; C8-D1A 48 h): 0.25 ± 0.01 µM; survival fraction (MCF-7 cells; 1, 0.5, and 0.1 µM): 0%
4 | > 20 µM | > 20 µM | > 20 µM | 18.2 ± 1.24 µM | 3.86 ± 0.11 µM | 6.93 ± 0.13 µM | 7.93 ± 0.1 µM | 2.43 ± 0.12 µM | > 20 µM | 4.58 ± 0.46 µM | > 20 µM | 2.24 ± 0.31 µM | COc1ccc(C=C2SC(Nc3cc(OC)c(OC)c(OC)c3)=NC2=O)cc1 [Les-6381, 5-(4-Methoxybenzylidene)-2-((3,4,5-trimethoxyphenyl)amino)thiazol-4(5H)-one] | > 20 µM | 8.65 ± 0.52 µM | 13.1 ± 0.24 µM | 4.09 ± 0.1 µM | 8.37 ± 0.11 µM | > 20 µM | > 20 µM | > 20 µM | IC50 (MCF-10A; MCF-10A 48 h): 0.97 ± 0.04 µM; IC50 (MCF-10A; MCF-10A 72 h): 2.03 ± 0.1 µM
5 | > 20 µM | > 20 µM | > 20 µM | > 20 µM | > 20 µM | > 20 µM | > 20 µM | > 20 µM | > 20 µM | 4.41 ± 0.35 µM | > 20 µM | 14.5 ± 0.57 µM | COc1cc(NC2=NC(=O)C(=Cc3cccs3)S2)cc(OC)c1OC [Les-6423, 5-(Thiophen-2-ylmethylene)-2-((3,4,5-trimethoxyphenyl)amino)thiazol-4(5H)-one] | > 20 µM | > 20 µM | > 20 µM | > 20 µM | – | > 20 µM | > 20 µM | > 20 µM | –
